Data as given in patent US20110166112A1, “METHOD FOR STIMULATING PLATELET PRODUCTION” (Eisai, Inc., priority 2009, published 2011).

System: subjects with chronic idiopathic thrombocytopenic purpura (ITP)
Assay: Phase 2 28-day study of E5501 tablets: safety and tolerability (TEAEs, discontinuations)
Format: in vivo, human
Settings: for Discontinued study, primary reason Adverse Event or SAE / Discontinued study, primary reason Platelet Count Increase to ≧500 K/mm^3: randomized/safety/FAS; for Blood and lymphatic system disorders / Cardiac disorders / Eye disorders / Gastritis haemorrhagic / Gastrointestinal disorders / Infections and infestations / Myocardial infarction / Nervous system disorders / Pneumonia / Retinal artery occlusion / Thrombocytopenia / Transient ischaemic attack: serious TEAE
Method: This was a phase 2, multi-center, double-blind, randomized, placebo-controlled, dose-ranging, parallel group study of E5501 tablets, used in the treatment of subjects with chronic idiopathic thrombocytopenic purpura (ITP) refractory to or relapsed after at least one prior ITP therapy. Subjects who met all entry criteria were randomly assigned in a 3:3:3:3:1 ratio to one of the following five treatment groups dosed daily for 28 days: 1) E5501 2.5 mg; 2) E5501 5 mg; 3) E5501 10 mg; 4) E5501 20 mg; or 5) placebo (PBO). Each E5501 dosing group consisted of 15 subjects while the PBO group consisted of 5 subjects. All study subjects were evaluated weekly (days 7, 14, 21 and 28) for safety and efficacy while receiving study treatment, with a final assessment for safety and effectiveness performed 4 weeks after the last study dose (day 56) unless the subject entered the follow-on study. Platelet counts were also measured on day 3 and day 5.
The safety and tolerability parameters included adverse events, clinical laboratory parameters, study drug exposure, vital electrocardiograms, concomitant medications, serum pregnancy tests for women of childbearing potential and physical examinations including height, weight, general appearance and recording of vital signs.
The populations of interest were defined as follows: • The randomized population included all subjects who were randomized into the study. • The safety population included all randomized subjects who receive at least one dose of study drug and have at least one safety assessment. • The pharmacokinetic (PK) population included all subjects who provided blood sample for analysis of E5501. A subject was included in this population if the subject had at least one blood draw for PK assessment. • The full analysis set (FAS) included all subjects who provided adequate data to derive at least one efficacy assessment. […] The day 28 visit window was defined to be from day 25, to last dose day+1, inclusively; • Other major protocol violations that impacted the platelet endpoint evaluation. Results from Planned Analyses
Subject Disposition. Sixty four subjects were randomly assigned to treatment in this study. All treated subjects provided adequate efficacy data and therefore were included in the FAS population. The number and percentage of subjects who completed treatment or discontinued prematurely were summarized by treatment groups as shown in Table 1. In addition, the number and percentage of subjects who withdrew were summarized by reason for discontinuation by treatment group. The majority (>85%) of subjects completed the study across all dose groups for the FAS, randomized, and safety populations. Seven subjects who discontinued the study early all were from E5501 dose groups: two subjects in each of 2.5, 10 and 20 mg dose groups and one subject in the 5 mg dose group.

O=C(Nc1nc(-c2cc(Cl)cs2)c(N2CCN(C3CCCCC3)CC2)s1)c1cnc(N2CCC(C(=O)O)CC2)c(Cl)c1 [E5501, 1-(3-chloro-5-{[4-(4-chlorothiophen-2-yl)-5-(4-cyclohexylpiperazin-1-yl)thiazol-2-yl]carbamoyl}pyridine-2-yl)piperidine-4-carboxylic acid]
Diarrhoea (TEAE, Total E5501): 5 (8.5) n (%) | Ecchymosis (TEAE, Total E5501): 3 (5.1) n (%) | Epistaxis (TEAE, Total E5501): 9 (15.3) n (%) | Fatigue (TEAE, Total E5501): 12 (20.3) n (%) | Headache (TEAE, Total E5501): 12 (20.3) n (%) | Migraine (TEAE, Total E5501): 2 (3.4) n (%) | Nausea (TEAE, Total E5501): 3 (5.1) n (%) | Pain in extremity (TEAE, Total E5501): 3 (5.1) n (%) | Petechiae (TEAE, Total E5501): 2 (3.4) n (%) | Platelet count increased (TEAE, Total E5501): 4 (6.8) n (%) | Upper respiratory tract infection (TEAE, Total E5501): 3 (5.1) n (%) | Vomiting (TEAE, Total E5501): 4 (6.8) n (%) | Death (Total E5501): 0 n (%) | Serious TEAEs (Any Serious TEAE) (Total E5501): 3 (5.1) n (%) | TEAE Leading to Study Treatment Dose Interruption (Total E5501): 3 (5.1) n (%) | TEAE Leading to Study Treatment Withdrawal (Total E5501): 4 (6.8) n (%) | TEAEs (Total E5501): 50 (84.7) n (%) | Treatment-Related Serious TEAEs (Total E5501): 1 (1.7) n (%) | Treatment-Related TEAEs (Total E5501): 35 (59.3) n (%) | TEAE leading to study treatment interruption (all E5501): 3 cases | TEAE leading to withdrawal of study treatment (all E5501): 4 cases | subjects with a TEAE leading to study drug withdrawal (all E5501): 6.8% | Epistaxis (all E5501-treated subjects): 15.3% | Fatigue (all E5501-treated subjects): 20.3% | Headache (all E5501-treated subjects): 20.3% | subjects who experienced a treatment emergent adverse event (TEAE) (all E5501-treated subjects): 84.7% | subjects with TEAE possibly or probably related to E5501 (all E5501-treated subjects): 59.3% | subjects who withdrew due to an AE (one for each of the 5 and 10 mg dose groups): two | number of serious TEAEs (overall): 6 | Discontinued study, primary reason Adverse Event or SAE (2.5 mg): 0 n (%) | Discontinued study, primary reason Platelet Count Increase to ≧500 K/mm^3 (2.5 mg): 0 n (%) | Discontinued study, primary reason Adverse Event or SAE (5 mg): 1 (6.7) n (%) | Discontinued study, primary reason Platelet Count Increase to ≧500 K/mm^3 (5 mg): 0 n (%) | Discontinued study, primary reason Adverse Event or SAE (10 mg): 1 (7.1) n (%) | Discontinued study, primary reason Platelet Count Increase to ≧500 K/mm^3 (10 mg): 0 n (%) | Discontinued study, primary reason Adverse Event or SAE (20 mg): 0 n (%) | Discontinued study, primary reason Platelet Count Increase to ≧500 K/mm^3 (20 mg): 2 (13.3) n (%) | Discontinued study, primary reason Adverse Event or SAE (Total E5501): 2 (3.4) n (%) | Discontinued study, primary reason Platelet Count Increase to ≧500 K/mm^3 (Total E5501): 2 (3.4) n (%) | Blood and lymphatic system disorders (2.5 mg): 1 (6.7) n (%) | Cardiac disorders (2.5 mg): 0 n (%) | Eye disorders (2.5 mg): 0 n (%) | Gastritis haemorrhagic (2.5 mg): 1 (6.7) n (%) | Gastrointestinal disorders (2.5 mg): 1 (6.7) n (%) | Infections and infestations (2.5 mg): 0 n (%) | Myocardial infarction (2.5 mg): 0 n (%) | Nervous system disorders (2.5 mg): 0 n (%) | Pneumonia (2.5 mg): 0 n (%) | Retinal artery occlusion (2.5 mg): 0 n (%) | Thrombocytopenia (2.5 mg): 1 (6.7) n (%) | Transient ischaemic attack (2.5 mg): 0 n (%) | Blood and lymphatic system disorders (5 mg): 0 n (%) | Cardiac disorders (5 mg): 0 n (%) | Eye disorders (5 mg): 0 n (%) | Gastritis haemorrhagic (5 mg): 0 n (%) | Gastrointestinal disorders (5 mg): 0 n (%) | Infections and infestations (5 mg): 0 n (%) | Myocardial infarction (5 mg): 0 n (%) | Nervous system disorders (5 mg): 0 n (%) | Pneumonia (5 mg): 0 n (%) | Retinal artery occlusion (5 mg): 0 n (%) | Thrombocytopenia (5 mg): 0 n (%) | Transient ischaemic attack (5 mg): 0 n (%) | Blood and lymphatic system disorders (10 mg): 0 n (%) | Cardiac disorders (10 mg): 1 (7.1) n (%) | Eye disorders (10 mg): 1 (7.1) n (%) | Gastritis haemorrhagic (10 mg): 0 n (%) | Gastrointestinal disorders (10 mg): 0 n (%) | Infections and infestations (10 mg): 1 (7.1) n (%) | Myocardial infarction (10 mg): 1 (7.1) n (%) | Nervous system disorders (10 mg): 1 (7.1) n (%) | Pneumonia (10 mg): 1 (7.1) n (%) | Retinal artery occlusion (10 mg): 1 (7.1) n (%) | Thrombocytopenia (10 mg): 0 n (%) | Transient ischaemic attack (10 mg): 1 (7.1) n (%) | Blood and lymphatic system disorders (20 mg): 0 n (%) | Cardiac disorders (20 mg): 0 n (%) | Eye disorders (20 mg): 0 n (%) | Gastritis haemorrhagic (20 mg): 0 n (%) | Gastrointestinal disorders (20 mg): 0 n (%) | Infections and infestations (20 mg): 0 n (%) | Myocardial infarction (20 mg): 0 n (%) | Nervous system disorders (20 mg): 0 n (%) | Pneumonia (20 mg): 0 n (%) | Retinal artery occlusion (20 mg): 0 n (%) | Thrombocytopenia (20 mg): 0 n (%) | Transient ischaemic attack (20 mg): 0 n (%) | Blood and lymphatic system disorders (Total E5501): 1 (1.7) n (%) | Cardiac disorders (Total E5501): 1 (1.7) n (%) | Eye disorders (Total E5501): 1 (1.7) n (%) | Gastritis haemorrhagic (Total E5501): 1 (1.7) n (%) | Gastrointestinal disorders (Total E5501): 1 (1.7) n (%) | Infections and infestations (Total E5501): 1 (1.7) n (%) | Myocardial infarction (Total E5501): 1 (1.7) n (%) | Nervous system disorders (Total E5501): 1 (1.7) n (%) | Pneumonia (Total E5501): 1 (1.7) n (%) | Retinal artery occlusion (Total E5501): 1 (1.7) n (%) | Thrombocytopenia (Total E5501): 1 (1.7) n (%) | Transient ischaemic attack (Total E5501): 1 (1.7) n (%)
